Source: ChEMBL document CHEMBL4330131, “The identification of novel small-molecule inhibitors targeting WDR5-MLL1 interaction through fluorescence polarization based high-throughput screening” (Bioorg Med Chem Lett, 2019)
Blank lines part the entries; values can stand above or below the compound they belong to.

Key:
[1] = target: T1, WD repeat-containing protein 5 (Homo sapiens, UniProt P61964); assay: Displacement of Ac-ARTEVHLRKS-(Ahx)-(Ahx)-K(5-FAM)-NH2 from recombinant full-length human N-terminal His6-tagged WDR5 (1 to 334 residues) expressed in Escherichia coli BL21 (DE3) after 2 hrs by fluorescence polarization assay
[2] = target: T1, WD repeat-containing protein 5; assay: Displacement of 5-FAM labelled tracer from WDR5 (unknown origin) by fluorescence polarization assay
[3] = target: T1, WD repeat-containing protein 5; assay: Displacement of fluorescence-labelled Ac-ARA peptide from WDR5 (unknown origin) by fluorescence polarization assay
MV4-11 = assay: Antiproliferative activity against human MV4-11 cells harboring MLL-AF4 fusion protein assessed as cell growth inhibition after 5 days by Celltiter-Glo luminescent assay; assay type: functional, cell-based; conditions: MV4-11, 120 h
[4] = target: T1, WD repeat-containing protein 5; assay: Binding affinity to recombinant full-length human N-terminal His6-tagged WDR5 (1 to 334 residues) expressed in Escherichia coli BL21 (DE3) by surface plasmon resonance analysis
[5] = target: Histone-lysine N-methyltransferase SETD1B (Homo sapiens, UniProt Q9UPS6); assay: Inhibition of SETD1B (unknown origin) using SAM as substrate preincubated for 15 mins followed by substrate addition and measured after 1 hr by Alphalisa assay
Chain of Histone-lysine N-methyltransferase SETD1B (Q9UPS6 whole entry): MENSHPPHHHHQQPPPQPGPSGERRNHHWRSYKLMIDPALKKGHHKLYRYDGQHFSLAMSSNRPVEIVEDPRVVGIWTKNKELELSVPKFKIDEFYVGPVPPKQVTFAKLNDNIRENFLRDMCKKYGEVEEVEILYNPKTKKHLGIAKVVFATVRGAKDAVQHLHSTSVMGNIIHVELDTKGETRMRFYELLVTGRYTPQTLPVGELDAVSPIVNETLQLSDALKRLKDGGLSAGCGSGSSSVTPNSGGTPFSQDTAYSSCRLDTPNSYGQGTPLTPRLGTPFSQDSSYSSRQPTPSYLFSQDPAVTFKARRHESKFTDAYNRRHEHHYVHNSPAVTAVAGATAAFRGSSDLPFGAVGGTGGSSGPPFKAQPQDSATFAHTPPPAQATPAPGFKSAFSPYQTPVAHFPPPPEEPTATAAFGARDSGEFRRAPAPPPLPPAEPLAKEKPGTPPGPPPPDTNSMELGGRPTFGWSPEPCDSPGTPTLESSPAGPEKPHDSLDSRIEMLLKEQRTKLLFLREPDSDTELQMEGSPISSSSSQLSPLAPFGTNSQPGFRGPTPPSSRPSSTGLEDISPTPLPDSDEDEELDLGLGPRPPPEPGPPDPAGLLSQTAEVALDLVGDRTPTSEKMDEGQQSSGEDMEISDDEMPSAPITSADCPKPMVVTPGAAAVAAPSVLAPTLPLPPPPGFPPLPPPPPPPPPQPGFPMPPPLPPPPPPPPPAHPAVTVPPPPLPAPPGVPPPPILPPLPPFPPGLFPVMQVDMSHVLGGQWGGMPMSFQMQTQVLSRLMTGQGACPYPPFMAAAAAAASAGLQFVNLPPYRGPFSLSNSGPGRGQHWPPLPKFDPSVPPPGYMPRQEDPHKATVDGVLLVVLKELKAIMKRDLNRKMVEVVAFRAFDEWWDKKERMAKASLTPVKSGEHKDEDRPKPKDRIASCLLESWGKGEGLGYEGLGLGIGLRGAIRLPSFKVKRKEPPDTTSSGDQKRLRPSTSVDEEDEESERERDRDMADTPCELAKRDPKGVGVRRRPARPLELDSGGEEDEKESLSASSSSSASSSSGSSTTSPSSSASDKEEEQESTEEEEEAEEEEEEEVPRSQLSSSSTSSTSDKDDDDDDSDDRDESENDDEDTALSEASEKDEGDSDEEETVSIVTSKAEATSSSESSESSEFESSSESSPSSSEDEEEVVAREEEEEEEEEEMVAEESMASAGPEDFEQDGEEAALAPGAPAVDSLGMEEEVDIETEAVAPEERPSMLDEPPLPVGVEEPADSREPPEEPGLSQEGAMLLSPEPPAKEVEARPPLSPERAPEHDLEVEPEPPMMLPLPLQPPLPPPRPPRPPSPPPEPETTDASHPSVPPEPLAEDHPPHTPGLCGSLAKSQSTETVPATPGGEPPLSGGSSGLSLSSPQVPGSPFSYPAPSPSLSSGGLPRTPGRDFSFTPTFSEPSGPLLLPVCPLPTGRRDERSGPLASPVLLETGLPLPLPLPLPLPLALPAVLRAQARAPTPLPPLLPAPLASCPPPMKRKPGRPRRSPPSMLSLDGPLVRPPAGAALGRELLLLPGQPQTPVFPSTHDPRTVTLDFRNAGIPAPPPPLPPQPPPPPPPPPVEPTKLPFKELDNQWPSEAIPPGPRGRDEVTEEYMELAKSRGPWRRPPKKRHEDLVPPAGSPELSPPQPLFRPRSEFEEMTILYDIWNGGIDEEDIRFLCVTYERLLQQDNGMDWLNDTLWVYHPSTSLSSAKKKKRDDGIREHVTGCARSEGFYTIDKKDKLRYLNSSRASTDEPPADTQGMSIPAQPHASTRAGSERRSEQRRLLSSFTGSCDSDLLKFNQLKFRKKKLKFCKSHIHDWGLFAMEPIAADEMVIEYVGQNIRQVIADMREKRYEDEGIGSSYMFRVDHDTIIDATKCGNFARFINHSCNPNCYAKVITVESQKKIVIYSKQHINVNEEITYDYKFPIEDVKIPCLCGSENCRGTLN

K562 = assay: Antiproliferative activity against human K562 cells assessed as cell growth inhibition after 5 days by Celltiter-Glo luminescent assay; assay type: functional, cell-based; conditions: K562, 120 h
[6] = target: Protein arginine N-methyltransferase 1 (Homo sapiens, UniProt Q99873); assay: Inhibition of PRMT1 (unknown origin) using SAM as substrate preincubated for 15 mins followed by substrate addition and measured after 1 hr by Alphalisa assay
Chain of Protein arginine N-methyltransferase 1 (Q99873 whole entry): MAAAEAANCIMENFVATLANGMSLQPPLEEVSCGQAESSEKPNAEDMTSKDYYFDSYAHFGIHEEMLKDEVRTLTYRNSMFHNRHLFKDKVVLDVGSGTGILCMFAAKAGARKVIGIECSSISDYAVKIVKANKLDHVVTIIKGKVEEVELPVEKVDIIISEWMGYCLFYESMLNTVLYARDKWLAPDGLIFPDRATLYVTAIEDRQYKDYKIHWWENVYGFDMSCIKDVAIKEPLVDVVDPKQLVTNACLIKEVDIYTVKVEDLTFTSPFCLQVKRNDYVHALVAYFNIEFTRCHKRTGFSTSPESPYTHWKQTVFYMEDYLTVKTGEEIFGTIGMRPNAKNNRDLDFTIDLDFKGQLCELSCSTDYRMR

[7] = target: T2, Histone-lysine N-methyltransferase EHMT2 (Homo sapiens, UniProt Q96KQ7); assay: Inhibition of G9a (unknown origin) using SAM as substrate preincubated for 15 mins followed by substrate addition and measured after 1 hr by Alphalisa assay
T2 sequence (Q96KQ7 whole entry): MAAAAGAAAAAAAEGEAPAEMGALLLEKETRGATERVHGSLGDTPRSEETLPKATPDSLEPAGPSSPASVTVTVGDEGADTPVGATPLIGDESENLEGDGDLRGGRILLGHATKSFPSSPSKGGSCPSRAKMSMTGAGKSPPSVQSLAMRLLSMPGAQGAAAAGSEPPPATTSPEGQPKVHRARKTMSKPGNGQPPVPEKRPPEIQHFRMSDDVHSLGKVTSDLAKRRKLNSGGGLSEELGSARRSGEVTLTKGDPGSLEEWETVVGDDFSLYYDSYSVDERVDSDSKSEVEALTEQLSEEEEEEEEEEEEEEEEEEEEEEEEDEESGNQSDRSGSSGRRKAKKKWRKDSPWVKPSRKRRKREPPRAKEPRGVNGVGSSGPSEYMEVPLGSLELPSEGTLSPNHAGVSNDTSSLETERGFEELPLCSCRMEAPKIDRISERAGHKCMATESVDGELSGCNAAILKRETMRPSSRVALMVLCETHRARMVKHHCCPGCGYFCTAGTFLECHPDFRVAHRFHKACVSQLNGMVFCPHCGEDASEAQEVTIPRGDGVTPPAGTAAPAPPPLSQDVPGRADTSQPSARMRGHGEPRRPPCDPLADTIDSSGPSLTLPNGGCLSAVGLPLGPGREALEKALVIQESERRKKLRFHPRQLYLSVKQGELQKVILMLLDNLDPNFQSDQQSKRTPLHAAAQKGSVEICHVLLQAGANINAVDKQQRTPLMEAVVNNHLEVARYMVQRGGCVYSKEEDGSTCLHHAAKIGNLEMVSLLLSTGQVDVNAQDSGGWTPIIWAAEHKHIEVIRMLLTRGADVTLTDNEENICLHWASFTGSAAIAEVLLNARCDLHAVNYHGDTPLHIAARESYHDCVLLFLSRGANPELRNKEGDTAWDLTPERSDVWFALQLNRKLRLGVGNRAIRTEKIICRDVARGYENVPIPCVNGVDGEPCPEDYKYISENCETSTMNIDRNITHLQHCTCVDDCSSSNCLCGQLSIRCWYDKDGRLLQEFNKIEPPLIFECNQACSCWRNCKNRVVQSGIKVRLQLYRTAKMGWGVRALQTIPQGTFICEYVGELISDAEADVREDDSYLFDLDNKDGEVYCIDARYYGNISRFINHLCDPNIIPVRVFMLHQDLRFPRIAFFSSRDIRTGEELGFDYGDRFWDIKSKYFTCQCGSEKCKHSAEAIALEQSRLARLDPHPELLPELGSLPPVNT

[8] = target: Histone-lysine N-methyltransferase 2D (Homo sapiens, UniProt O14686); assay: Inhibition of MLL2 (unknown origin) using SAM as substrate preincubated for 15 mins followed by substrate addition and measured after 1 hr by Alphalisa assay

IC50 [1]: 22 µM
SMILES: O=C(O)c1cc(NS(=O)(=O)c2ccc(Cl)cc2)cc(C(=O)O)c1

IC50 [1]: 13 to 13.1 µM
SMILES: Cc1c(Cl)ccc(S(=O)(=O)Nc2cccc(C(=O)O)c2)c1Cl

The remaining lines, values behind:

SMILES: CCCCOc1ccc(S(=O)(=O)Nc2cccc(C(=O)O)c2)cc1C
IC50 [1]: 30 µM

SMILES: CCCCOc1ccc(S(=O)(=O)Nc2ccccc2C(=O)O)cc1C
IC50 [1]: 22 µM

SMILES: CCC(CC)(NC(=O)C(C)C)C(=O)N[C@@H](CCCNC(=N)N)C(=O)NC1(C(=O)NC(c2ccc(Cl)cc2)c2ccc(Cl)cc2)CCCC1
Ki [2]: < 0.001 µM
IC50 [3]: 0.0045 µM

SMILES: CCCCOc1ccc(S(=O)(=O)Nc2ccc(C(=O)O)cc2)cc1C
IC50 (MV4-11): 31.2 µM
Kd [4]: 15.8 µM
IC50 [5]: > 100 µM
IC50 (K562): 72.1 µM
IC50 [6]: > 100 µM
IC50 [7]: > 100 µM
IC50 [8]: > 100 µM
IC50 [1]: 13 µM

SMILES: COc1ccc(S(=O)(=O)Nc2ccc(C(=O)O)cc2)cc1C(C)(C)C
IC50 [1]: 48 µM
